From PubChem BioAssay AID2060491 (Molecular Pharmacology Branch, DTP, NCI, 2025)
One block for each compound: values may come before it.

Test system: 857933-349-R-J2-PDC complex spheroids, viability
Experiment: Anticancer human tumor 857933-349-R-J2-PDC patient-derived colon adenocarcinoma cell line growth inhibition [GQUAD]
Settings: for IC50: curve of first compound; for viability, T/C: stronger effect = lower value
Summary of the method: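 Tumor cells were grown as complex spheroids with HUVEC endothelial cells and mesenchymal stem cells as stroma. G-quadruplex stabilizers were combined with targeted agents over half-log dilutions from near the clinical Cmax, or from 10 microM.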

[1] = second compound 0.0316 µM, first compound 0.0316 µM
[2] = second compound 0.0316 µM, first compound 0.1 µM
[3] = second compound 0.0316 µM, first compound 0.316 µM
[4] = second compound 0.0316 µM, first compound 1 µM
[5] = second compound 0.0316 µM, first compound 3.16 µM
[6] = second compound 0.0316 µM, first compound 10 µM
[7] = second compound 0.1 µM, first compound 0.0316 µM
[8] = second compound 0.1 µM, first compound 0.1 µM
[9] = second compound 0.1 µM, first compound 0.316 µM
[10] = second compound 0.1 µM, first compound 1 µM
[11] = second compound 0.1 µM, first compound 3.16 µM
[12] = second compound 0.1 µM, first compound 10 µM
[13] = second compound 0.316 µM, first compound 0.0316 µM
[14] = second compound 0.316 µM, first compound 0.1 µM
[15] = second compound 0.316 µM, first compound 0.316 µM
[16] = second compound 0.316 µM, first compound 1 µM
[17] = second compound 0.316 µM, first compound 3.16 µM
[18] = second compound 0.316 µM, first compound 10 µM
[19] = second compound 1 µM, first compound 0.0316 µM
[20] = second compound 1 µM, first compound 0.1 µM
[21] = second compound 1 µM, first compound 0.316 µM
[22] = second compound 1 µM, first compound 1 µM
[23] = second compound 1 µM, first compound 3.16 µM
[24] = second compound 1 µM, first compound 10 µM
[25] = second compound 3.16 µM, first compound 0.0316 µM
[26] = second compound 3.16 µM, first compound 0.1 µM
[27] = second compound 3.16 µM, first compound 0.316 µM
[28] = second compound 3.16 µM, first compound 1 µM
[29] = second compound 3.16 µM, first compound 3.16 µM
[30] = second compound 3.16 µM, first compound 10 µM
[31] = second compound 10 µM, first compound 0.0316 µM
[32] = second compound 10 µM, first compound 0.1 µM
[33] = second compound 10 µM, first compound 0.316 µM
[34] = second compound 10 µM, first compound 1 µM
[35] = second compound 10 µM, first compound 3.16 µM
[36] = second compound 10 µM, first compound 10 µM
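Note: spheroids exposed to compounds for one week before readout.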
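Throughout, for viability, T/C: percent viability relative to vehicle DMSO wells taken as 100%.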

Compound: C=CC(=O)N1CCN(c2nc(=O)n(-c3c(C)ccnc3C(C)C)c3nc(-c4c(O)cccc4F)c(F)cc23)C(C)C1 (stereo unspecified) + Cc1[nH]c2ccc(F)cc2c1-c1nc2c3cccnc3c3ncccc3c2[nH]1
IC50 (second compound 0.0316 µM): > 10 µM
IC50 (second compound 0.1 µM): > 10 µM
IC50 (second compound 0.316 µM): > 10 µM
IC50 (second compound 1 µM): > 10 µM
IC50 (second compound 3.16 µM): > 10 µM
IC50 (second compound 10 µM): > 10 µM
viability, T/C [1]: 102%
viability, T/C [2]: 106%
viability, T/C [3]: 96.7%
viability, T/C [4]: 102%
viability, T/C [5]: 109%
viability, T/C [6]: 86%
viability, T/C [7]: 98.9%
viability, T/C [8]: 101%
viability, T/C [9]: 96.5%
viability, T/C [10]: 104%
viability, T/C [11]: 103%
viability, T/C [12]: 93.4%
viability, T/C [13]: 95.1%
viability, T/C [14]: 100%
viability, T/C [15]: 101%
viability, T/C [16]: 97.4%
viability, T/C [17]: 104%
viability, T/C [18]: 89%
viability, T/C [19]: 101%
viability, T/C [20]: 106%
viability, T/C [21]: 96.3%
viability, T/C [22]: 104%
viability, T/C [23]: 108%
viability, T/C [24]: 89.2%
viability, T/C [25]: 99%
viability, T/C [26]: 110%
viability, T/C [27]: 91.3%
viability, T/C [28]: 99%
viability, T/C [29]: 104%
viability, T/C [30]: 95.3%
viability, T/C [31]: 102%
viability, T/C [32]: 98.2%
viability, T/C [33]: 88.2%
viability, T/C [34]: 92.7%
viability, T/C [35]: 99%
viability, T/C [36]: 84.7%

IC50 (second compound 0.0316 µM): > 10 µM
IC50 (second compound 0.1 µM): > 10 µM
IC50 (second compound 0.316 µM): < 0.0316 µM
IC50 (second compound 1 µM): < 0.0316 µM
IC50 (second compound 3.16 µM): < 0.0316 µM
IC50 (second compound 10 µM): < 0.0316 µM
Compound: Cc1cccc(N(C)C(=O)C2C(O)CCN2c2nc(C)cc(C(F)(F)F)c2C#N)c1 (stereo unspecified) + Cc1cnc(CNC(=O)c2c(=O)c3ccc(N4CCCN(C)CC4)nc3n3c2sc2ccccc23)cn1
viability, T/C [1]: 92%
viability, T/C [2]: 88.2%
viability, T/C [3]: 94.4%
viability, T/C [4]: 82.3%
viability, T/C [5]: 95.1%
viability, T/C [6]: 77.6%
viability, T/C [7]: 70.8%
viability, T/C [8]: 73.3%
viability, T/C [9]: 62.9%
viability, T/C [10]: 58.8%
viability, T/C [11]: 74.5%
viability, T/C [12]: 64.1%
viability, T/C [13]: 24.6%
viability, T/C [14]: 29.8%
viability, T/C [15]: 27.1%
viability, T/C [16]: 23.4%
viability, T/C [17]: 24.2%
viability, T/C [18]: 22.7%
viability, T/C [19]: 4.6%
viability, T/C [20]: 7.14%
viability, T/C [21]: 5.51%
viability, T/C [22]: 4.02%
viability, T/C [23]: 4.11%
viability, T/C [24]: 3.8%
viability, T/C [25]: 2.72%
viability, T/C [26]: 2.17%
viability, T/C [27]: 1.95%
viability, T/C [28]: 2.02%
viability, T/C [29]: 2.19%
viability, T/C [30]: 1.89%
viability, T/C [31]: 2.6%
viability, T/C [32]: 2.28%
viability, T/C [33]: 2.23%
viability, T/C [34]: 1.9%
viability, T/C [35]: 1.89%
viability, T/C [36]: 0.69%

IC50 (second compound 0.0316 µM): > 10 µM
IC50 (second compound 0.1 µM): > 10 µM
IC50 (second compound 0.316 µM): < 0.0316 µM
IC50 (second compound 1 µM): < 0.0316 µM
IC50 (second compound 3.16 µM): < 0.0316 µM
IC50 (second compound 10 µM): < 0.0316 µM
Compound: C=CC(=O)N1CCN(c2nc(=O)n(-c3c(C)ccnc3C(C)C)c3nc(-c4c(O)cccc4F)c(F)cc23)C(C)C1 (stereo unspecified) + Cc1cnc(CNC(=O)c2c(=O)c3ccc(N4CCCN(C)CC4)nc3n3c2sc2ccccc23)cn1
viability, T/C [1]: 106%
viability, T/C [2]: 85.1%
viability, T/C [3]: 91.4%
viability, T/C [4]: 88.1%
viability, T/C [5]: 111%
viability, T/C [6]: 79.3%
viability, T/C [7]: 59.7%
viability, T/C [8]: 69.3%
viability, T/C [9]: 64.4%
viability, T/C [10]: 73%
viability, T/C [11]: 78.2%
viability, T/C [12]: 67%
viability, T/C [13]: 19.7%
viability, T/C [14]: 25.7%
viability, T/C [15]: 26.4%
viability, T/C [16]: 22.1%
viability, T/C [17]: 34.4%
viability, T/C [18]: 30.8%
viability, T/C [19]: 4.37%
viability, T/C [20]: 5.36%
viability, T/C [21]: 4.38%
viability, T/C [22]: 4.4%
viability, T/C [23]: 4.7%
viability, T/C [24]: 5.94%
viability, T/C [25]: 2.59%
viability, T/C [26]: 2.48%
viability, T/C [27]: 2.57%
viability, T/C [28]: 3.03%
viability, T/C [29]: 3.31%
viability, T/C [30]: 2.69%
viability, T/C [31]: 1.16%
viability, T/C [32]: 1.17%
viability, T/C [33]: 1.22%
viability, T/C [34]: 1.56%
viability, T/C [35]: 1.95%
viability, T/C [36]: 1.37%
